{"source": "patent US20040194155A1", "about": "“HBV mutations associated with reduced susceptibility to adefovir” (priority 2002, published 2004)", "key": {"HBV": {"test_system": "HBV", "experiment": "Phase 3 clinical study GS-98-438, HBeAg negative chronic hepatitis B patients", "assay_type": "in vivo, human", "protocol": "The median serum HBV DNA levels declined by 3.5 and 3.9 log10 copies/mL from baseline to week 48 in the ADV 10 mg dose groups in HBeAg positive (Study GS-98-437) and in HBeAg negative (Study GS-98-438) chronic hepatitis B patients, respectively.\nAdefovir resistance surveillance was performed in a blinded manner in HBeAg negative chronic hepatitis B patients treated for 96 weeks in a Phase 3 double-blind, randomized, placebo-controlled clinical study (GS-98-438) of adefovir dipivoxil 10 mg (ADV). The analysis included 79 patients who received ADV 10 mg daily for the first 48 weeks and were randomized to also receive ADV 10 mg during the second 48 weeks.\nThe reverse transcriptase (RT) domain of the HBV polymerase gene (rt1 to rt344) was sequenced for HBV DNA extracted from baseline and week 96 serum samples (or the last on-study sample) for the 79 patients treated continuously with ADV for 96 weeks if the samples had detectable serum HBV DNA (≧1000 copies/mL by Roche Amplicor™ PCR assay) at the time points tested.\nStudy GS-98-438 is a randomized, double-blind, placebo-controlled Phase 3 clinical study of the safety and efficacy of ADV for the treatment of patients with HBeAg negative/anti-HBe positive/HBV DNA positive chronic hepatitis B. A total of 184 patients received at least one dose of study medication during the first 48 weeks (n=61 and 123 for the placebo and ADV 10 mg groups, respectively). During the second 48 weeks, all placebo patients switched to ADV 10 mg daily while the ADV-treated patients were re-randomized to either continue ADV or receive placebo at a 2:1 ratio. Accordingly, all patients who received at least one dose of study drug during the second 48 weeks are classified into three groups: PLB-ADV (n=60), ADV-ADV (n=79), and ADV-PLB (n=40).\nA virology substudy of Study GS-98-438 included all patients in the ADV 10 mg-ADV 10 mg group (n=79). The RT domain of the HBV polymerase gene from banked serum samples from these patients was genotypically analyzed at baseline, and either at week 96, or upon early termination during the second 48 weeks.\nIf the week 96 serum HBV DNA value was not available for a patient, the closest serum HBV DNA value prior to week 96 was used. All week 96 and the last on-drug samples are referred to as week 96 samples hereafter. Note that Roche Molecular Systems raised the lower limit of quantification of the HBV DNA PCR assay from 400 copies/mL to 1,000 copies/mL after Gilead completed the week 48 analyses for study 438."}, "[1]": {"test_system": "rtK241E + rtK318Q mutant HBV (patient-derived clones)", "experiment": "Whole HBV genome cell culture assay (HepG2 transient transfection), rtK241E + rtK318Q clones", "conditions": "in vitro, patient 0370-3503", "procedure": "All conserved site substitutions were evaluated for their effects on adefovir susceptibility using a novel approach to generate full-length patient-derived HBV clones. […] Full-length viral genomes were cloned into the lethal selection vector pCAP^s at a Mlu Nl site through blunt-end ligation (PCR Cloning Kit, Roche) and then subcloned into plasmid pHY106, a pBluescript KS (+)-derived plasmid containing a CMV promoter and the minimal 5′ and 3′ HBV sequence necessary (approximately 180 total bases) for viral replication after the insertion of a genome-length clinical HBV isolate. Drug susceptibility of patient-derived clones was analyzed by transient transfection into HepG2 cells.\nTo investigate if these conserved site mutations conferred resistance to adefovir, adefovir susceptibility of HBV isolates derived from the above five patients was evaluated using a whole HBV genome cell culture assay as described above."}, "[2]": {"test_system": "wild-type HBV (patient-derived baseline clones)", "experiment": "Whole HBV genome cell culture assay: patient-derived HBV clones transiently transfected into HepG2 cells, 7 days drug, Southern blot of intracellular replicating virus DNA", "assay_type": "cell-based, hepatitis B virus", "conditions": "adefovir, patient-derived HBV (0454-2506), reference"}, "[3]": {"test_system": "rtN236T mutant HBV (patient-derived clones)", "experiment": "Whole HBV genome cell culture assay (HepG2 transient transfection), rtN236T clones", "assay_type": "cell-based, hepatitis B virus", "conditions": "for IC50 Fold Change (rtN236T/Wild-type): patient-derived HBV strain, rtN236T vs wild-type (Table 7); for susceptibility of rtN236T mutant (in words): in vitro"}, "[4]": {"test_system": "Lab HBV strain, rtA181T mutant", "experiment": "In vitro adefovir susceptibility of HBV lab strain with introduced rtA181T", "assay_type": "cell-based, hepatitis B virus", "excerpt": "(§1) One patient (0454-2506) with the rtN236T mutation also developed a second conserved site mutation rtA181T at week 96. However, all week 96 isolates derived from the patient encoding both rtN236T and rtA181T were replication deficient in vitro; the reason for this is unclear. To assess the adefovir sensitivity of HBV containing both rtN236T and rtA181Tmutations, an artificial construct was obtained by modifying an existing patient-derived HBV clone. The rtA181T mutation was introduced by site-directed mutagenesis into replicating HBV clones from patient 0454-2506 that already encoded rtN236T. The resulting double mutants were replication competent and were used for adefovir susceptibility testing. […] The rtA181T mutation was also introduced into a standard HBV lab strain (genotyped, ayw) to assess the individual contribution of the rtA181T mutation."}, "[5]": {"test_system": "rtN236T + rtA181T double mutant HBV", "experiment": "Whole HBV genome cell culture assay, rtA181T introduced by site-directed mutagenesis into rtN236T clones of patient 0454-2506", "assay_type": "cell-based, hepatitis B virus", "conditions": "adefovir, patient-derived HBV (0454-2506)", "excerpt": "as §1"}}, "note": "“Also recorded” adds a separate entry of the source."}
{"compound": "CC(C)(C)C(=O)OCOP(=O)(COCCn1cnc2c(N)ncnc21)OCOC(=O)C(C)(C)C", "note": "[ADV, adefovir dipivoxil]", "values": [{"measurement": "number of patients with HBV DNA < 1000 copies/mL at week 96", "setting": "HBV; of 79 patients on ADV 10 mg for 96 weeks, Roche Amplicor PCR", "value": 58}]}
{"compound": "Nc1ncnc2c1ncn2CCOCP(=O)(O)O", "note": "[Adefovir, adefovir]", "values": [{"measurement": "susceptibility of rtK241E + rtK318Q double mutant (in words)", "setting": "[1]", "value": "not associated with resistance; also recorded: remained fully susceptible"}, {"measurement": "IC50 Fold Change from Wild-Type", "setting": "[2]", "value": 1, "unit": "fold"}, {"measurement": "IC50 Fold Change (rtN236T/Wild-type)", "setting": "[3]", "value": 9.6, "unit": "fold"}, {"measurement": "resistance conferred by rtA181T mutation (in words)", "setting": "[4]", "value": "did not confer resistance; also recorded: does not confer resistance"}, {"measurement": "reduction in serum HBV DNA", "setting": "HBV; patient 0370-3503 (rtK241E + rtK318Q), week 96", "value": "> 5", "unit": "log10"}, {"measurement": "serum HBV DNA", "setting": "HBV; patient 0370-3503, week 96", "value": 3.1, "unit": "log10 copies/mL"}, {"measurement": "serum HBV DNA", "setting": "HBV; patient 0370-3503, week 156 (February of 2003)", "value": 3.6, "unit": "log10 copies/mL"}, {"measurement": "IC50 Fold Change from Wild-Type", "setting": "[5]", "value": 2.5, "unit": "fold"}]}
{"compound": "C=C1[C@H](CO)[C@@H](O)C[C@@H]1n1cnc2c(=O)[nH]c(N)nc21", "note": "[Entecavir, entecavir]", "values": [{"measurement": "susceptibility of rtN236T mutant (in words)", "setting": "[3]", "value": "remained susceptible"}, {"measurement": "IC50 Fold Change (rtN236T/Wild-type)", "setting": "[3]", "value": 0.67, "unit": "fold"}]}
{"compound": "Cc1cn([C@@H]2C[C@@H](O)[C@H](CO)O2)c(=O)[nH]c1=O", "note": "[L-dT]", "values": [{"measurement": "susceptibility of rtN236T mutant (in words)", "setting": "[3]", "value": "remained susceptible"}, {"measurement": "IC50 Fold Change (rtN236T/Wild-type)", "setting": "[3]", "value": 2.4, "unit": "fold"}]}
{"compound": "COc1ccc(Sc2nc(N)nc3c2ncn3CCOCP(=O)(OCC(F)(F)F)OCC(F)(F)F)cc1", "note": "[MCC-478]", "values": [{"measurement": "IC50 Fold Change (rtN236T/Wild-type)", "setting": "[3]", "value": 8.6, "unit": "fold"}]}
{"compound": "C[C@H](Cn1cnc2c(N)ncnc21)OCP(=O)(O)O", "note": "[Tenofovir, tenofovir]", "values": [{"measurement": "IC50 Fold Change (rtN236T/Wild-type)", "setting": "[3]", "value": 4.2, "unit": "fold"}]}
